The target of experiment [1] is PI3K alpha (Homo sapiens (Human), UniProt P42336). In words: Enzymatic PI3K alpha isoform inhibition (lipid kinase activity, Kinase-Glo luminescence). Type of experiment: biochemical. Particulars: Enzymatic assay. A digest of the protocol:
(§1)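 IC50s derive from 4-parameter logistic fits of % inhibition across 8 concentrations (usually 10 to 0.003 μM). Lipid kinase reaction: PI3K (10 nM) plus phosphatidylinositol (5 μg/mL) started with 2 μM ATP, stopped near 50% ATP depletion; leftover ATP quantified by Kinase-Glo luminescence.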
A general note: Kinase-Glo measures the ATP left after a reaction by luminescence.

The target of experiment [2] is PI3K delta (Homo sapiens (Human), UniProt O00329). The experiment in a line: Enzymatic PI3K delta isoform inhibition (lipid kinase activity, Kinase-Glo luminescence). Type of experiment: biochemical. Particulars: Enzymatic assay. A digest of the protocol: as §1
PI3K delta, sequence (O00329 other isoform, or with tags, fused parts or gaps linker GGGGGG): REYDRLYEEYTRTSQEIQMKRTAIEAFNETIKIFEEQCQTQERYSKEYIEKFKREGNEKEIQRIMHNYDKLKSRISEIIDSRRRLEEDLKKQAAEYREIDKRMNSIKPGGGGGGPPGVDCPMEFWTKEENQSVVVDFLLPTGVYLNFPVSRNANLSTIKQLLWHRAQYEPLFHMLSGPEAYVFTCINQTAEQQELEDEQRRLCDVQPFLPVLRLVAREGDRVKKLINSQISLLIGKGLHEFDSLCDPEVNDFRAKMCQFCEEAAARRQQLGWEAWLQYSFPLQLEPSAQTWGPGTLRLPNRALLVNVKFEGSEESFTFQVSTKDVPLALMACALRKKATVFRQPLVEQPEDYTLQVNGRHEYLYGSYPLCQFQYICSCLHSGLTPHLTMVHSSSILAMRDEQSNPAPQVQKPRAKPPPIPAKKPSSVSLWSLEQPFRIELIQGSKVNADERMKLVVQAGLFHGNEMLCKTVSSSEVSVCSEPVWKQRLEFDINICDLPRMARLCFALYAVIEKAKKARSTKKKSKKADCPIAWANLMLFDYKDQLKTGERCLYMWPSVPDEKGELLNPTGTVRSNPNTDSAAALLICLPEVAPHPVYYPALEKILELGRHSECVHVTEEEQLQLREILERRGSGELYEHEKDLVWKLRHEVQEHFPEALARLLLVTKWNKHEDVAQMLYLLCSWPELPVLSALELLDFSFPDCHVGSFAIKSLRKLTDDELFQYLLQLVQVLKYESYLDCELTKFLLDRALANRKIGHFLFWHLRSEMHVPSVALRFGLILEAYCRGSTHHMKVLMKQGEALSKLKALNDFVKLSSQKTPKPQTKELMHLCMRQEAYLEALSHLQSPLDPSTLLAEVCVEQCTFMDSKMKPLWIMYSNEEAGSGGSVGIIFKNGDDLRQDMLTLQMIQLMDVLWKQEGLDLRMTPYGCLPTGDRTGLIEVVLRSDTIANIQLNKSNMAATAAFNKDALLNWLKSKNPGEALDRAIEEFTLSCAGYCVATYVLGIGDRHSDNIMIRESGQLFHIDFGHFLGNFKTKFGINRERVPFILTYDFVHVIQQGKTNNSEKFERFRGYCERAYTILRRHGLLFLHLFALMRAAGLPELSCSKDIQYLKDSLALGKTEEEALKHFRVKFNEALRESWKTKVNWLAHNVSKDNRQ

PI3K alpha, sequence (P42336 other isoform, or with tags, fused parts or gaps): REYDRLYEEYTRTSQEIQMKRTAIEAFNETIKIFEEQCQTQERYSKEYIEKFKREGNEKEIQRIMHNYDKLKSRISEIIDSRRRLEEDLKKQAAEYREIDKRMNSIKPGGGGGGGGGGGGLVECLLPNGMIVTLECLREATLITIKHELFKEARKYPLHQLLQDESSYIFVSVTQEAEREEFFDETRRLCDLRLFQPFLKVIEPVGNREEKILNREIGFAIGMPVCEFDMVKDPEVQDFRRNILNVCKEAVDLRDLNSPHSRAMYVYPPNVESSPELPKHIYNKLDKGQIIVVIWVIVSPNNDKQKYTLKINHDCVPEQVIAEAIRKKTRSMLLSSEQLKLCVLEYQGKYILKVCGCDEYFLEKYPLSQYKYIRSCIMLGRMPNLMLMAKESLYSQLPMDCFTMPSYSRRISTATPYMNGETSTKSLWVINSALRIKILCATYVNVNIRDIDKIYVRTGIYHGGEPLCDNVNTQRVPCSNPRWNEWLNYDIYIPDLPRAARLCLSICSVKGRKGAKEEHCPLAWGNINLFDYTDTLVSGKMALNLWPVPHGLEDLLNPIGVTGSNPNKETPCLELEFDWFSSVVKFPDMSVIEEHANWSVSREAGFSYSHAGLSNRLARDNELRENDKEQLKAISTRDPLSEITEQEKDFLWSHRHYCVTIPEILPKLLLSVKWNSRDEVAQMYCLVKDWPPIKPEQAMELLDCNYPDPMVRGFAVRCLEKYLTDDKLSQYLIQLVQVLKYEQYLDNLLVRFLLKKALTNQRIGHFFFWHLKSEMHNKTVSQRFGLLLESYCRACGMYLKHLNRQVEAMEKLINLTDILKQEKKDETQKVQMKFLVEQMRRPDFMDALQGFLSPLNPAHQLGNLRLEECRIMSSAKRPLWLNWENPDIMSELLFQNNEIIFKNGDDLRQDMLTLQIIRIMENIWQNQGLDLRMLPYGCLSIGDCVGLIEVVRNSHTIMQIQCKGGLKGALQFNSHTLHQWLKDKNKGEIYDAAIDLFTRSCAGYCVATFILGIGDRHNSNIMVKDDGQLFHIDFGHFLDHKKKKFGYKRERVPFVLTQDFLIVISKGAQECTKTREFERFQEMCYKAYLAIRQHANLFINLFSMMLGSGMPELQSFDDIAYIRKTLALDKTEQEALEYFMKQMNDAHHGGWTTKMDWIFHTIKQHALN

As to `Cc1cc(N2CCOc3ccc(O[C@H]4CCN(C(=O)C5CCOC5)C4)cc32)cnc1S(C)(=O)=O` (stereo partly drawn) [Example B31, {(S)-3-[4-(6-Methanesulfonyl-5-methyl-pyridin-3-yl)-3,4-dihydro-2H-benzo[1,4]oxazin-6-yloxy]-pyrrolidin-1-yl}-(tetrahydro-furan-3-yl)-methanone], the IC50 in experiment [1] came to 977 nM; in experiment [2] it was 3 nM.

`COCC(=O)N1CC[C@H](Oc2ccc3c(c2)N(c2cnc(S(C)(=O)=O)c(C)c2)CCO3)C1` [Example B32, 1-{(S)-3-[4-(6-Methanesulfonyl-5-methyl-pyridin-3-yl)-3,4-dihydro-2H-benzo[1,4]oxazin-6-yloxy]-pyrrolidin-1-yl}-2-methoxy-ethanone]: the IC50 in experiment [1] amounted to 369 nM; in experiment [2], 36 nM.

Take `Cc1cc(N2CCOc3ccc(O[C@H]4CCN(C(=O)C(C)C)C4)cc32)cnc1S(C)(=O)=O` [Example B33, 1-{(S)-3-[4-(6-Methanesulfonyl-5-methyl-pyridin-3-yl)-3,4-dihydro-2H-benzo[1,4]oxazin-6-yloxy]-pyrrolidin-1-yl}-2-methyl-propan-1-one]: the half-inhibitory concentration (IC50) in experiment [1] was 610 nM; in experiment [2] it was less than 9 nM.

With `Cc1cc(N2CCOc3ccc(O[C@H]4CCN(C(=O)c5ccccc5)C4)cc32)cnc1S(C)(=O)=O` [Example B34, {(S)-3-[4-(6-Methanesulfonyl-5-methyl-pyridin-3-yl)-3,4-dihydro-2H-benzo[1,4]oxazin-6-yloxy]-pyrrolidin-1-yl}-phenyl-methanone], the IC50 in experiment [1] was found to be 795 nM; in experiment [2], 46 nM.

Turning to `Cc1cc(N2CCOc3ccc(O[C@H]4CCN(C(=O)C5CCS(=O)(=O)C5)C4)cc32)cnc1S(C)(=O)=O` (stereo partly drawn) [Example B35, (1,1-Dioxo-tetrahydro-1lambda*6*-thiophen-3-yl)-{(S)-3-[4-(6-methanesulfonyl-5-methyl-pyridin-3-yl)-3,4-dihydro-2H-benzo[1,4]oxazin-6-yloxy]-pyrrolidin-1-yl}-methanone], the values for the IC50 in experiment [1] and in experiment [2] were 1390 nM and 27 nM, respectively.

With `Cc1cc(N2CCOc3ccc(O[C@H]4CCN(C(=O)C5COCCO5)C4)cc32)cnc1S(C)(=O)=O` (stereo partly drawn) [Example B36, [1,4]Dioxan-2-yl-{(S)-3-[4-(6-methanesulfonyl-5-methyl-pyridin-3-yl)-3,4-dihydro-2H-benzo[1,4]oxazin-6-yloxy]-pyrrolidin-1-yl}-methanone], the IC50 in experiment [1] is 801 nM; in experiment [2] it was less than 3 nM.

For the compound `COCCC(=O)N1CC[C@H](Oc2ccc3c(c2)N(c2cnc(S(C)(=O)=O)c(C)c2)CCO3)C1` [Example B37, 1-{(S)-3-[4-(6-Methanesulfonyl-5-methyl-pyridin-3-yl)-3,4-dihydro-2H-benzo[1,4]oxazin-6-yloxy]-pyrrolidin-1-yl}-3-methoxy-propan-1-one], the IC50 in experiment [1] was 1100 nM; in experiment [2] it was 103 nM.

For `COc1cc(N2CCOc3ccc(O[C@H]4CCN(C(=O)C5CCOCC5)C4)cc32)cnc1OC` [Example B38, {(S)-3-[4-(5,6-Dimethoxy-pyridin-3-yl)-3,4-dihydro-2H-benzo[1,4]oxazin-6-yloxy]-pyrrolidin-1-yl}-(tetrahydro-pyran-4-yl)-methanone], the IC50 in experiment [1] was 166 nM; in experiment [2], 3 nM.

On to `COc1cc(N2CCOc3ccc(O[C@H]4CCN(C(=O)C5COCCO5)C4)cc32)cnc1OC` (stereo partly drawn) [Example B39, {(S)-3-[4-(5,6-Dimethoxy-pyridin-3-yl)-3,4-dihydro-2H-benzo[1,4]oxazin-6-yloxy]-pyrrolidin-1-yl}-[1,4]dioxan-2-yl-methanone], for which the IC50 in experiment [1] was 176 nM; in experiment [2], 11 nM.

As to `COc1cc(N2CCOc3ccc(O[C@H]4CCN(C(=O)C5CCOC5)C4)cc32)cnc1OC` (stereo partly drawn) [Example B40, {(S)-3-[4-(5,6-Dimethoxy-pyridin-3-yl)-3,4-dihydro-2H-benzo[1,4]oxazin-6-yloxy]-pyrrolidin-1-yl}-(tetrahydro-furan-3-yl)-methanone], the IC50 was 249 nM in experiment [1] and 12 nM in experiment [2].

As to `COc1cc(N2CCOc3ccc(O[C@H]4CCN(C(=O)C5CCS(=O)(=O)C5)C4)cc32)cnc1OC` (stereo partly drawn) [Example B41, {(S)-3-[4-(5,6-Dimethoxy-pyridin-3-yl)-3,4-dihydro-2H-benzo[1,4]oxazin-6-yloxy]-pyrrolidin-1-yl}-(1,1-dioxo-tetrahydro-1lambda*6*-thiophen-3-yl)-methanone], the 50% inhibitory concentration (IC50) in experiment [1] was found to be 421 nM; in experiment [2] it was 25 nM.

`Cc1cc(N2CCOc3ccc(O[C@H]4CCN(C(=O)C5CCCOC5)C4)cc32)cnc1S(C)(=O)=O` (stereo partly drawn) [Example B42, {(S)-3-[4-(6-Methanesulfonyl-5-methyl-pyridin-3-yl)-3,4-dihydro-2H-benzo[1,4]oxazin-6-yloxy]-pyrrolidin-1-yl}-(tetrahydro-pyran-3-yl)-methanone]: the values for the IC50 in experiment [1] and in experiment [2] were 502 nM and 33 nM, respectively.

As to `COc1cc(N2CCOc3ccc(O[C@H]4CCN(C(=O)C5CCCOC5)C4)cc32)cnc1OC` (stereo partly drawn) [Example B43, {(S)-3-[4-(5,6-Dimethoxy-pyridin-3-yl)-3,4-dihydro-2H-benzo[1,4]oxazin-6-yloxy]-pyrrolidin-1-yl}-(tetrahydro-pyran-3-yl)-methanone], the IC50 was 514 nM in experiment [1] and 57 nM in experiment [2].

Take `COCC(=O)N1CC[C@H](Oc2ccc3c(c2)N(c2cnc(OC)c(OC)c2)CCO3)C1` [Example B44, 1-{(S)-3-[4-(5,6-Dimethoxy-pyridin-3-yl)-3,4-dihydro-2H-benzo[1,4]oxazin-6-yloxy]-pyrrolidin-1-yl}-2-methoxy-ethanone]: the IC50 in experiment [1] worked out at 71 nM; in experiment [2], 22 nM.

For `COc1cc(N2CCOc3ccc(O[C@H]4CCN(C(=O)CCS(C)(=O)=O)C4)cc32)cnc1OC` [Example B45, 1-{(S)-3-[4-(5,6-Dimethoxy-pyridin-3-yl)-3,4-dihydro-2H-benzo[1,4]oxazin-6-yloxy]-pyrrolidin-1-yl}-3-methanesulfonyl-propan-1-one], the IC50 in experiment [1] turned out to be 574 nM; in experiment [2], 74.5 nM.

As to `COCCC(=O)N1CC[C@H](Oc2ccc3c(c2)N(c2cnc(OC)c(OC)c2)CCO3)C1` [Example B46, 1-{(S)-3-[4-(5,6-Dimethoxy-pyridin-3-yl)-3,4-dihydro-2H-benzo[1,4]oxazin-6-yloxy]-pyrrolidin-1-yl}-3-methoxy-propan-1-one], the IC50 in experiment [1] turned out to be 2080 nM; in experiment [2] it was 226 nM.

As to `COc1cc(N2CCOc3ccc(O[C@H]4CCN(C(=O)C5CCS(=O)(=O)CC5)C4)cc32)cnc1OC` [Example B47, {(S)-3-[4-(5,6-Dimethoxy-pyridin-3-yl)-3,4-dihydro-2H-benzo[1,4]oxazin-6-yloxy]-pyrrolidin-1-yl}-(1,1-dioxo-hexahydro-1lambda*6*-thiopyran-4-yl)-methanone], the IC50 in experiment [1] was 241 nM; in experiment [2], 10.7 nM.

Consider `COc1cc(N2CCOc3ccc(O[C@H]4CCN(C(=O)c5cn(C)cn5)C4)cc32)cnc1OC` [Example B48, {(S)-3-[4-(5,6-Dimethoxy-pyridin-3-yl)-3,4-dihydro-2H-benzo[1,4]oxazin-6-yloxy]-pyrrolidin-1-yl}-(1-methyl-1H-imidazol-4-yl)-methanone], for which the IC50 was found to be 109 nM in experiment [1] and 7 nM in experiment [2].

Turning to `Cc1cc(N2CCOc3ccc(O[C@H]4CCN(C(=O)C5CCCCC5)C4)cc32)cnc1S(C)(=O)=O` [Example B49, Cyclohexyl-{(S)-3-[4-(6-methanesulfonyl-5-methyl-pyridin-3-yl)-3,4-dihydro-2H-benzo[1,4]oxazin-6-yloxy]-pyrrolidin-1-yl}-methanone], the IC50 turned out to be 450 nM in experiment [1] and 7 nM in experiment [2].

With `Cc1cc(N2CCOc3ccc(O[C@H]4CCN(C(=O)[C@H]5CC[C@H](O)CC5)C4)cc32)cnc1S(C)(=O)=O` [Example B50, (4-Hydroxy-cyclohexyl)-{(S)-3-[4-(6-methanesulfonyl-5-methyl-pyridin-3-yl)-3,4-dihydro-2H-benzo[1,4]oxazin-6-yloxy]-pyrrolidin-1-yl}-methanone], the IC50 worked out at 933 nM in experiment [1] and 13 nM in experiment [2].

With `Cc1cc(N2CCOc3ccc(O[C@H]4CCN(C(=O)[C@H]5CC[C@@H](O)CC5)C4)cc32)cnc1S(C)(=O)=O` [Example B51, (4-Hydroxy-cyclohexyl)-{(S)-3-[4-(6-methanesulfonyl-5-methyl-pyridin-3-yl)-3,4-dihydro-2H-benzo[1,4]oxazin-6-yloxy]-pyrrolidin-1-yl}-methanone], the values for the IC50 in experiment [1] and in experiment [2] were 1030 nM and 10 nM, respectively.

Take `Cc1cc(N2CCOc3ccc(O[C@H]4CCN(C(=O)C5CCOC5)C4)cc32)cnc1S(C)(=O)=O` (stereo partly drawn) [Example B52, {(S)-3-[4-(6-Methanesulfonyl-5-methyl-pyridin-3-yl)-3,4-dihydro-2H-benzo[1,4]oxazin-6-yloxy]-pyrrolidin-1-yl}-(tetrahydro-furan-3-yl)-methanone]: the IC50 is 556 nM in experiment [1] and less than 3 nM in experiment [2].

Consider `Cc1cc(N2CCOc3ccc(O[C@H]4CCN(C(=O)C5CCOC5)C4)cc32)cnc1S(C)(=O)=O` (stereo partly drawn) [Example B53, {(S)-3-[4-(6-Methanesulfonyl-5-methyl-pyridin-3-yl)-3,4-dihydro-2H-benzo[1,4]oxazin-6-yloxy]-pyrrolidin-1-yl}-(tetrahydro-furan-3-yl)-methanone], for which the IC50 in experiment [1] amounted to 343 nM; in experiment [2], 4.5 nM.

Take `COc1cc(N2CCOc3ccc(O[C@H]4CCN(C(=O)C5CCOCC5)C4)cc32)cnc1Cl` [Example B54, {(S)-3-[4-(6-Chloro-5-methoxy-pyridin-3-yl)-3,4-dihydro-2H-benzo[1,4]oxazin-6-yloxy]-pyrrolidin-1-yl}-(tetrahydro-pyran-4-yl)-methanone]: the IC50 was 756 nM in experiment [1] and 11 nM in experiment [2].

A word on the IC50: it is the concentration that inhibits the measured activity by half. High values mean weaker potency in that assay, low ones greater potency in that assay.

The record behind these values is patent US9539260B2, “Dihydro-benzo-oxazine and dihydro-pyrido-oxazine derivatives” (Novartis AG, priority 2012, dated 2017).
